# pEC50: −log10 of the molar value.
# What was measured:
# [1] = tested on: bee brain calcium channel (ICa); assay type: cell-based, Apis mellifera
# mouse sensory neuron ICa = assay type: cell-based
# [2] = tested on: insect versus vertebrate calcium channels
# [3] = tested on: whole-cell calcium channel currents in isolated cockroach neurons; settings: 0.1 µM; cited from earlier work
Substance,concentration for maximum inhibition of ICa [1] [nM],pEC50 ([1]; read-out: EC50 for inhibition of ICa),maximum ICa inhibition (mouse sensory neuron ICa) [%],pEC50 (mouse sensory neuron ICa; read-out: EC50 for inhibition of a component of ICa),preference for insect versus vertebrate calcium channels [2] [fold],inhibition of whole-cell calcium channel currents [3] [%]
ω-agatoxin-IVA (KKKCIAKDYGRCKWGGTPCCRGRGCICSIMGTNCECKPRLIMEGLGLA),> 100,8.00,~40,~7.70,2,
omega-atracotoxin-Hv1a [ω-ACTX-Hv1a],,,,,,25±10

# From patent US8362201B2 (priority 2000, dated 2013)
